The values below come from patent publication US9440926B2, “Antiviral compounds and methods” (Biotron Limited, priority 2005, dated 2016).

Assay type in all cases: cell-based
A short description of data set [1]: Cytotoxicity to cells in the viral inhibition assay (MTT assay). The settings on record: human, primary human macrophages, read-out: TC50 (the source's name). The procedure: The toxicity of test compounds to cells in the viral inhibition assay was determined using the MTT assay (Pauwels R, et al. (1988); D'Cruz O J et al. (1999); Joo H. (2003)). This method utilises Thiazolyl Blue (MTT), which is added to the cell culture (100 ug/well), and incubated for 4-5 hours whilst the live, metabolically active cells convert the chemical to its purple coloured metabolite, which forms intracellular crystals. The purple colour is measured colourimetrically (570-590 nm) once cells have been permeabilised using acidified isopropanol containing 10% triton X-100. The most intense colour development occurs in wells where the metabolising cells are most numerous. […] Those values were estimated manually from the Percentage Viability vs Concentration dose response curves (FIG. 1). The compound toxicity to cells in culture was taken into account in inhibition experiments and in separate experiments involving increased concentrations of compound. TC50 values were estimated in separate experiments (not shown) where concentrations of compound were greater.
A general note: Formazan colour is commonly taken as a measure of viable cells.

The target of the next data set is T1, Den M (Dengue virus type 1, UniProt P33478).
T1 construct: expressed in transfected cells
Kind of data set: Bacterial bioassay, Den M. Also on record: scale not given here. The settings on record: mean bacterial bioassay score; M protein of Dengue virus. The text has this: (§1) The bacterial bioassay method used in the present example to test the anti-viral activity of the compounds against different viral targets was described in detail in PCT/2004/000866, incorporated in its entirety herein by reference. Vpu, p7 and M referred to in the table are small membrane proteins encoded by HIV, HCV and Dengue viruses, respectively, which have functional activities supporting viral growth and/or replication.

A further data set addresses T2, Vpu (Human immunodeficiency virus type 1 group M subtype B, UniProt P05919).
T2 construct: expressed in transfected cells
Briefly: Bacterial bioassay, Vpu. The settings on record: mean bacterial bioassay score; Vpu of HIV.
Text: as §1

The next data set addresses T3, HCV p7 (Hepatitis C virus genotype 1a, UniProt P27958).
T3 construct: expressed in transfected cells
Briefly: Bacterial bioassay, HCV p7. The arrangement: scale not given here. The settings on record: mean bacterial bioassay score; p7 of HCV.
Text: as §1

The subject of another data set is HIV-1 strain Ba-L. Kind of data set: HIV-1 Ba-L growth inhibition in primary macrophages (p24 ELISA). The note with it: for IC50: Human immunodeficiency virus 1, BAL, Primary macrophage; for AI (Antiviral Index): calculated by formula from TC50 and IC50, HIV-1Ba-L in primary macrophages. How it is done:
The inhibition specifically of HIV-1 growth by the compounds of the invention was tested in primary macrophages in vitro using a method similar to that used to assess antibody neutralization (VanCott T C et al (1999)). In the present case, the laboratory adapted HIV-1 strain Ba-L was used, which is known to infect macrophages.
Peripheral Blood Mononuclear Cells (PBMC) were prepared from healthy donors using buffy-coat packs obtained from the Australian Red Cross Blood Service (ARCBS). Blood was received the day following donation, and had been depleted of serum and platelets, leaving a small volume (less than 100 mL) of concentrated leukocytes.
Leukocytes were separated from blood cells and granulocytes by density gradient centrifugation (Ficoll Paque) and washed extensively in PBS^− (without Ca/Mg) to remove platelets. Recovered cells were allowed to adhere to plastic tissue culture flasks (Becton Dickinson) for 2 hr, 37° C., 5% CO2, in media (DMEM (high)/10% AB serum/50 ug/mL gentamicin/2 mM L-glutamine) during which time the myeloid cells formed an adherent monolayer leaving lymphocytes unattached.
Non-adherent lymphocytes were removed by washing with warm PBS^+ (with Ca/Mg) and were generally discarded. In some cases those cells were recovered and frozen in media/10% DMSO for use in viral stock infections. The adherent monocytes were recovered by scraping gently with a plastic cell scraper. The myeloid cells were then plated into 96-well plates at a cell concentration of 1.5×10^6/mL, and allowed to fully differentiate over a period of 14 days.
Macrophages were allowed to differentiate over a 14 day period, with media changes as required. On day 14, cells were infected in the presence of decreasing concentrations of BIT compounds over a range 0-10 μM. Samples of 25 μL culture supernatants were removed from each well on day 7 and fresh media plus compound dilution was added.
After 7 days the samples with and without compound were analysed to assess the level of virus present in the wells, using a p24 ELISA (Innotest). Virus levels in samples were converted to “percentage of control virus growth” values based on the controls (containing no compound). From that dose response curve (example FIG. 1) the IC50 was calculated and used as a measure of compound anti-HIV activity.

[2] abbreviates: additional compounds, same assay system, MTT.
[3] abbreviates: additional compounds, same assay system (HIV-1Ba-L, primary macrophages), estimated from dose response curves, read-out: Estimated IC50.
Setting [4] is: 50% cell viability, MTT assay, estimated in separate experiments at greater compound concentrations.
Setting [5] is: 168 h, against HIV-1Ba-L in primary macrophages, p24 ELISA after 7 days, estimated from dose response curves (FIG. 1), 0-10 μM, read-out: IC50.

Like-named read-outs stand apart in the source and are kept apart here.

T2 sequence (P05919 whole entry): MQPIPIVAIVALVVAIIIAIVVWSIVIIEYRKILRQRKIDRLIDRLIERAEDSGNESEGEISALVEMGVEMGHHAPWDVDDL
T3 sequence (P27958 747-809): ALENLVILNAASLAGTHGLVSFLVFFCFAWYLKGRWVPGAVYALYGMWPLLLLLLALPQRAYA
T1 sequence (P33478 206-280): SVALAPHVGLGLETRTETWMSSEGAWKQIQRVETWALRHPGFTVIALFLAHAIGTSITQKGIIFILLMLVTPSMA

As usually defined, the IC50 is the concentration at which inhibition is half-maximal. With `N=C(N)NC(=O)c1ccc2c(-c3ccoc3)cccc2c1` [BIT311, (5-(3-furyl)-2-napthoyl)guanidine], the CC50 in data set [1] (setting [2]) fell in the range of 10 to 50 µM. Moreover, on Den M, the “Average Bacterial Assay Score, Den M” value was 1.60. In addition, the “Average Bacterial Assay Score, Vpu” value on Vpu is recorded as 0.42. In addition, the “Average Bacterial Assay Score, HCV p7” value at HCV p7 is 0.42. Also, the IC50 in the data set with HIV-1 strain Ba-L (setting [3]) was less than 630 nM.

Regarding `Cc1cccc2cc(C(=O)NC(=N)N)ccc12` [BIT218, 5-methyl-2-napthoylguanidine], the CC50 in data set [1] (setting [4]) is greater than 300 µM. For the same molecule, on Den M, the “Average Bacterial Assay Score, Den M” value is recorded as 1.3. Besides, the “Average Bacterial Assay Score, Vpu” value on Vpu was determined as 1.8. Moreover, at HCV p7, the “Average Bacterial Assay Score, HCV p7” value came out at 1.7. The concentration for half-maximal inhibition (IC50) in the data set on HIV-1 strain Ba-L (setting [5]) is 1560 nM. For the same molecule, in the data set with HIV-1 strain Ba-L, the “AI (Antiviral Index)” value is reported as greater than 192.

As for `N=C(N)NC(=O)c1ccc2c(C3CC3)cccc2c1` [BIT312, (5-cyclopropyl-2-napthoyl)guanidine], in data set [1] (setting [2]), the CC50 was 10 to 50 µM. Also, at Den M, the “Average Bacterial Assay Score, Den M” value amounted to 2.25. Also, the “Average Bacterial Assay Score, Vpu” value on Vpu was determined as 0.50. The “Average Bacterial Assay Score, HCV p7” value at HCV p7 is given as 0.80. The half-inhibitory concentration (IC50) in the data set on HIV-1 strain Ba-L (setting [3]) was less than 630 nM.

On to `COc1c(C(=O)NC(=N)N)ccc2ccccc12` [BIT301, (1-methoxy-2-napthoyl)guanidine], for which the CC50 in data set [1] (setting [2]) is greater than 50 µM. Moreover, the “Average Bacterial Assay Score, Den M” value on Den M came to 0.50. Further, the “Average Bacterial Assay Score, Vpu” value on Vpu is 1.54. Besides, at HCV p7, the “Average Bacterial Assay Score, HCV p7” value was determined as 0.25. The IC50 in the data set with HIV-1 strain Ba-L (setting [3]) was less than 2500 nM.

For `N=C(N)NC(=O)c1ccc2c(-c3cccs3)cccc2c1` [BIT308, (5-(thien-2-yl)-2-napthoyl)guanidine], the CC50 in data set [1] (setting [2]) is 10 to 50 µM. Also, on Den M, the “Average Bacterial Assay Score, Den M” value is listed as 2.40. Besides, the “Average Bacterial Assay Score, Vpu” value on Vpu was found to be 0.45. For the same molecule, the “Average Bacterial Assay Score, HCV p7” value at HCV p7 was found to be 0.08. For the same molecule, the IC50 with HIV-1 strain Ba-L (setting [3]) is less than 630 nM.

Regarding `Cc1ccc2cc(C(=O)NC(=N)N)ccc2c1` [BIT306, (6-methyl-2-napthoyl)guanidine], the CC50 in data set [1] (setting [2]) was 10 to 50 µM. Also, the “Average Bacterial Assay Score, Den M” value on Den M worked out at 2.53. Besides, the “Average Bacterial Assay Score, Vpu” value on Vpu is 0.52. Also, the “Average Bacterial Assay Score, HCV p7” value on HCV p7 was 0.25. Also, the IC50 with HIV-1 strain Ba-L (setting [3]) is less than 10000 nM.

On to `N=C(N)NC(=O)c1ccc2c(Br)cccc2c1` [BIT303, (5-bromo-2-napthoyl)guanidine], for which the CC50 in data set [1] (setting [2]) fell in the range of 10 to 50 µM. In addition, the “Average Bacterial Assay Score, Den M” value on Den M was found to be 2.10. For the same molecule, the “Average Bacterial Assay Score, Vpu” value at Vpu amounted to 0.22. The “Average Bacterial Assay Score, HCV p7” value at HCV p7 worked out at 0.00. The concentration for half-maximal inhibition (IC50) in the data set on HIV-1 strain Ba-L (setting [3]) was less than 2500 nM.

For the molecule `CC(C)Cn1cc(-c2cccc3cc(C(=O)NC(=N)N)ccc23)cn1` [BIT310, (5-(1-isobutyl-1H-pyrazol-4-yl)-2-napthoyl)guanidine], the CC50 in data set [1] (setting [2]) lay within 10 to 50 µM. Further, the “Average Bacterial Assay Score, Den M” value at Den M was determined as 1.60. Moreover, the “Average Bacterial Assay Score, Vpu” value at Vpu is reported as 0.00. For the same molecule, the “Average Bacterial Assay Score, HCV p7” value on HCV p7 turned out to be 0.00. In the data set on HIV-1 strain Ba-L (setting [3]), the IC50 is less than 2500 nM.

Regarding `Cn1cc(-c2cccc3cc(C(=O)NC(=N)N)ccc23)cn1` [BIT225, 5-(1-methylpyrazol-4-yl)2-naphthoylguanidine], the CC50 in data set [1] (setting [4]) is greater than 200 µM. Also, at Den M, the “Average Bacterial Assay Score, Den M” value came out at 0.9. On Vpu, the “Average Bacterial Assay Score, Vpu” value was determined as 1.4. Also, at HCV p7, the “Average Bacterial Assay Score, HCV p7” value is on record as 1.2. In the data set with HIV-1 strain Ba-L (setting [5]), the IC50 is 2500 nM. Moreover, in the data set on HIV-1 strain Ba-L, the “AI (Antiviral Index)” value is listed as greater than 80.
